Assay results taken from paper PMC9718795, “Caffeic acid N-[3,5-bis(trifluoromethyl)phenyl] amide as a non-steroidal inhibitor for steroid 5α-reductase type 1 using a human keratinocyte cell-based assay and molecular dynamics” (Scientific Reports, 2022).

Assays:
[1] = tested on: HaCaT cells; assay: Cell viability (MTT) run in parallel with the HaCaT-based SRD5A1 inhibitory assay; set-up: species or system human; settings: HaCaT
[2] = biological target: T1, steroid 5α-reductase type 1 (SRD5A1) (Homo sapiens, UniProt P18405); assay: HaCaT cell-based SRD5A1 inhibitory assay with direct DHT detection by HPTLC
T1 construct: HaCaTs-produced SRD5A1 smoothly converted testosterone to DHT; endogenous in cells; host or cells: HaCaT human keratinocytes
T1 sequence (P18405 1-259): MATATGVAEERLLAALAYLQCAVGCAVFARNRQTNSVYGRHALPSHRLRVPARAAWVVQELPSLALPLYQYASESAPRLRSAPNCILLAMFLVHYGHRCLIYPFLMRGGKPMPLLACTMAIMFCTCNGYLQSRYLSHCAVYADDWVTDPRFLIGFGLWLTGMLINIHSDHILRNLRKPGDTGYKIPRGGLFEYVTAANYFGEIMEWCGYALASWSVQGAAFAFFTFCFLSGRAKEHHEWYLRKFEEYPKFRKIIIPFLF

O=C(C=Cc1ccc(O)c(O)c1)Nc1cc(C(F)(F)F)cc(C(F)(F)F)c1 [Compound 4, 3-(3,4-dihydroxyphenyl)-N-[3,5-bis (trifluoromethyl)phenyl]-2-propenamide]
Cytotoxicity between control and treatment groups ([1]; 0.2, 0.5, 1 and 2.5 µM): no significant cytotoxicity
% Cell viability ± SD ([1]; compound 1.0 µM, 24 h, 1 µM): 87.85 ± 1.13%
Concentration dependence of inhibition of DHT production ([2]; 0.2–2.5 µM, HaCaT): concentration-dependent inhibition
IC50 ([2]; HaCaT cells, 10 µM testosterone, 24 h, read-out: IC50 of inhibition of DHT production (SRD5A1 activity)): 1440 ± 130 nM
inhibition at 2.5 µM ([2]; HaCaT, 2.5 µM, 12 h, read-out: Inhibition of SRD5A1 enzyme activity): ~50%
inhibition at 1 µM ([2]; HaCaT, compound 1.0 µM, HaCaT, 24 h, read-out: % Inhibition of DHT production ± SD): 46%
Potency of DHT inhibition relative to avicequinone C ([2]; IC50 1.44 vs 4.45 µM): 3 times
% Inhibition of DHT production ± SD ([2]; compound 1.0 µM, HaCaT, 24 h, 1 µM): 45.67 ± 3.57%
